Here are results for 1 compound from publication PMC5429698, “Biochemical analysis of leishmanial and human GDP-Mannose Pyrophosphorylases and selection of inhibitors as new leads” (Scientific Reports, 2017).

“And” between values parts separate entries of the source, which are not always exact repeats. Equal values may be shown once. Read-outs that look alike come from different tables or passages of the source.

For data set [1], the target named is LdGDP-MP (Leishmania donovani, UniProt E9BG32). In words: biochemical. The note with it: Man-1-P 10-100 µM, GTP 100 µM. As for the experimental part:
(§1) GDP-MP catalyzes the following reaction: Man‐1‐P+GTP→GDP−Mannose+Pyrophosphate The reaction media were buffered at pH optima and contained optimal concentrations of Man-1-P, GTP, GDP-MP and Mg^2+ determined for each purified GDP-MP (Fig. 2d), supplemented with DTT (1 mM). Inorganic pyrophosphatase, which hydrolyses the inorganic pyrophosphates generated by the GDP-MPs in inorganic phosphates, was added at 0.1 U/ml (Sigma-Aldrich). Inorganic pyrophosphatase was added in excess to the reaction medium in order to minimize the probability that the putative inhibitors of GDP-MPs interfere with this enzyme. […] The quantity of inorganic phosphate generated, representing GDP-MP activity, was determined by measuring OD650nm (Lab systems Multiskan MS). The molar extinction coefficient ε of the end product detected was determined by measuring OD650nm with a range of inorganic phosphate concentrations diluted in the revelation buffer and was calculated at 27207 M^−1 cm^−1 (Supplementary Fig. S2). The kinetic constants K m, V m and k cat were determined by non linear regression using GraphPad Prism 6.0.
(§2) Enzyme activity was measured as described above in the presence of 100 µM of compounds and the percentage of inhibition was calculated in reference to untreated enzyme. […]

Data set [2] has as its system L. donovani intramacrophage amastigotes in infected BMDM. Nature of the data set: Antileishmanial evaluation on intramacrophage amastigotes, BMDM host. The class given is cell-based. As to the method: (§3) Concerning the evaluation on intramacrophage amastigotes, RAW 264.7 macrophages (from ATCC) and bone marrow derived macrophages (BMDM) were plated in 96-well microplates at a density of 2 × 10^4 cells per well and incubated for 24 h at 37 °C with 5% CO2 for RAW264.7 cells or at 37 °C with 7% CO2 for BMDM. Axenic amastigotes were differenciated as described above, centrifuged at 2,000 g for 10 min, resuspended in DMEM complete medium, and added to each well to reach a 16:1 parasite to macrophage ratio. After 24 h of infection at 37 °C with 5% CO2 for RAW264.7 cells or at 37 °C with 7% CO2 for BMDM, extracellular parasites were removed, and DMEM complete medium (100 µl) containing two fold serial dilutions of the compounds from a maximal concentration of 100 µM was added to each well. After 48 h of treatment, the medium was removed and replaced by DirectPCR Lysis Reagent (100 µl; Euromedex) before 3 freeze-thaw cycles at room temperature, addition of 50 µg/ml proteinase K, and a final incubation at 55 °C overnight to allow cell lysis. 10 µl of each cell extract was then added to 40 µl of DirectPCR Lysis reagent containing Sybr Green I (0.05%; Invitrogen). DNA fluorescence was monitored using Mastercycler® realplex (Eppendorf). The activity of the compounds was expressed as IC50. Miltefosine was used as the reference drug.

The test system of data set [3] is L. mexicana intramacrophage amastigotes in infected RAW.264.7 macrophages. In words: microbe, parasite or virus in culture. The class given is cell-based. The note with it: for IC50: 48 h treatment, read-out: IC50 (µM) ± SD L. mexicana infected RAW.264.7 macrophages. As for the experimental part:
as §3

The subject of data set [4] is L. mexicana intramacrophage amastigotes in infected BMDM. In words: microbe, parasite or virus in culture. The class given is cell-based. As for the experimental part:
as §3

For data set [5], the system named is L. mexicana axenic amastigotes. In words: Antileishmanial evaluation on axenic amastigotes (resazurin). It counts as cell-based. As to conditions: 72 h treatment, 32 °C, read-out: IC50 (µM) ± SD L. mexicana axenic amastigotes. As to the method:
(§4) The evaluations of activity on axenic and intramacrophage amastigotes were adapted from the protocols previously described. Briefly, for the evaluation on axenic amastigotes, two fold serial dilutions of the compounds from a maximal concentration of 100 µM were performed in 100 µl of complete medium (see above) in 96-well microplates. Axenic amastigotes were then added to each well at a density of 10^6/ml in a 200 µl final volume. After 72 h of treatment at 37 °C for L. donovani or at 32 °C for L. mexicana with 5% CO2, 20 µl of resazurin (450 µM) was added to each well and further incubated in the dark for 24 h at 37 °C for L. donovani or at 32 °C for L. mexicana with 5% CO2. In living cells, resazurin is reduced in resorufin and this conversion is monitored by measuring OD570nm (resorufin) and OD600nm (resazurin; Lab systems Multiskan MS). The activity of the compounds was expressed as IC50. Miltefosine was used as the reference drug.
A general note: Alamar Blue is a resazurin reagent that responds to reducing activity.

The subject of data set [6] is L. donovani axenic amastigotes. The data set is described as above. It counts as cell-based. As to conditions: 72 h treatment, 37 °C, read-out: IC50 (µM) ± SD L. donovani axenic amastigotes. As to the method:
as §4

Data set [7] can be described thus: Cytotoxicity (resazurin). It counts as cell-based, Balb/c mice. As to conditions: Balb/c, mouse, bone marrow derived macrophages (BMDM); 48 h incubation; read-out: Cytotoxicity CC50 (µM) ± SD BMDM. As for the experimental part:
(§5) Cells were plated in 96-well microplates at a density of 2 × 10^4 cells per well. After an incubation of 24 h at 37 °C with 5% CO2 for RAW264.7 cells or at 37 °C with 7% CO2 for BMDM, the medium was removed in each well, and 100 µl of DMEM complete medium containing two fold serial dilutions of the compounds was added to each well. […] Cell viability was then monitored as described above.

Data set [8] concerns L. major intramacrophage amastigotes. Set-up: method as in PMID 20160053. The note with it: cited from earlier work.
In data set [9] the target is T1, hGDP-MP (Homo sapiens, UniProt Q9Y5P6).
T1 construct: made in house; host or cells: E. coli BL21(DE3), co-transformed with chaperone plasmid pG-KJE3
T1 sequence (Q9Y5P6 whole entry): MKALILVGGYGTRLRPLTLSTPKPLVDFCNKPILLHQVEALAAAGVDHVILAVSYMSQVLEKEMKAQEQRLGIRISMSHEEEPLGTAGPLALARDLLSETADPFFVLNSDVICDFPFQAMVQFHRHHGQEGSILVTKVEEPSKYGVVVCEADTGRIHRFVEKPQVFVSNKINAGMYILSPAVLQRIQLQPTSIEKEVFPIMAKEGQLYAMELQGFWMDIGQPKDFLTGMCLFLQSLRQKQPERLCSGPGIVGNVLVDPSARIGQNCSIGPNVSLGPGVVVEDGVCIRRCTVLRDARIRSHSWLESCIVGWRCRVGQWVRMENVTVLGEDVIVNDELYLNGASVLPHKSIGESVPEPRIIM
In words: GDP-MP enzymatic assay (malachite green) on purified hGDP-MP. The class given is biochemical. The note with it: Man-1-P 10-100 µM, GTP 100 µM. As for the experimental part: as §1, §2

The nature of data set [10]: Cytotoxicity (resazurin). The class given is cell-based. As to conditions: mouse, RAW264.7 macrophages; 48 h incubation; read-out: Cytotoxicity CC50 (µM) ± SD RAW264.7 macrophages. As for the experimental part: as §5
The subject of data set [11] is leishmanial GDP-MP (LdGDP-MP and/or LmGDP-MP). In words: Screen of the 100 compound library at 100 µM on purified leishmanial GDP-MPs. It counts as biochemical, Leishmania. The note with it: compound at 100 µM. As for the experimental part:
GDP-MP catalyzes the following reaction: Man‐1‐P+GTP→GDP−Mannose+Pyrophosphate The reaction media were buffered at pH optima and contained optimal concentrations of Man-1-P, GTP, GDP-MP and Mg^2+ determined for each purified GDP-MP (Fig. 2d), supplemented with DTT (1 mM). Inorganic pyrophosphatase, which hydrolyses the inorganic pyrophosphates generated by the GDP-MPs in inorganic phosphates, was added at 0.1 U/ml (Sigma-Aldrich). Inorganic pyrophosphatase was added in excess to the reaction medium in order to minimize the probability that the putative inhibitors of GDP-MPs interfere with this enzyme. The reaction was initiated by the addition of GDP-MP, and was stopped after adding 100 µl of revelation buffer containing malachite green (0.03% w/v), ammonium molybdate (0.2% w/v) and Triton X-100 (0.05% v/v) in HCl (0.7 M) for 5 min at the optimal temperature. The quantity of inorganic phosphate generated, representing GDP-MP activity, was determined by measuring OD650nm (Lab systems Multiskan MS). The molar extinction coefficient ε of the end product detected was determined by measuring OD650nm with a range of inorganic phosphate concentrations diluted in the revelation buffer and was calculated at 27207 M^−1 cm^−1 (Supplementary Fig. S2). The kinetic constants K m, V m and k cat were determined by non linear regression using GraphPad Prism 6.0.
(§6) Enzyme activity was measured as described above in the presence of 100 µM of compounds and the percentage of inhibition was calculated in reference to untreated enzyme. As a control, compounds were evaluated in parallel in the same conditions on inorganic pyrophosphatase alone in order to discard false-positives. […] Furthermore, no effect was observed on the activity of the three purified GDP-MPs with 1% DMSO, corresponding to the maximal solvent concentration used at 100 µM of compound. Compounds presenting a minimum of 50% inhibition on a leishmanial GDP-MP were subsequently selected to determine their type of inhibition and their K i values. Inhibition data were fitted to competitive, non-competitive or uncompetitive models of enzyme inhibition by non linear least squares regression analysis using GraphPad Prism 6.0.

In data set [12] the test system is inorganic pyrophosphatase. Nature of the data set: Control for false positives on inorganic pyrophosphatase alone. It counts as biochemical. As to conditions: compound at 100 µM, same conditions as the GDP-MP assay. As to the method: as §6
The subject of data set [13] is L. major GDP-MP. Set-up: method as in PMID 20160053. As to conditions: high throughput screening; cited from earlier work.
Data set [14] concerns L. donovani intramacrophage amastigotes in infected RAW.264.7 macrophages. Nature of the data set: Antileishmanial evaluation on intramacrophage amastigotes, RAW264.7 host. The class given is cell-based. The note with it: for IC50: 48 h treatment, read-out: IC50 (µM) ± SD L. donovani infected RAW.264.7 macrophages. As to the method: as §3
The mark [15] stands for this setting: CC50 RAW264.7 / IC50 infected RAW264.7.

LdGDP-MP, sequence (E9BG32 entry or part of it): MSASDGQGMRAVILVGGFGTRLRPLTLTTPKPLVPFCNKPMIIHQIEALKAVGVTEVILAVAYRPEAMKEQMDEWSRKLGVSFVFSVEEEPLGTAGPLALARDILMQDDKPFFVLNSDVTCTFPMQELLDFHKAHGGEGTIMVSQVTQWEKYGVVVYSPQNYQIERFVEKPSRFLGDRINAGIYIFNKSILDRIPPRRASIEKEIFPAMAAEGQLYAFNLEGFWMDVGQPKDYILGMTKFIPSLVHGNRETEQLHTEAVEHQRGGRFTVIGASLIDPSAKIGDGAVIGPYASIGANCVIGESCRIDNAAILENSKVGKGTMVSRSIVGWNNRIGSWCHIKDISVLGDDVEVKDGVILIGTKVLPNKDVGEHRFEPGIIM

As to `CC(C)(C)c1ccc(CN2CCN(c3ccnc4cc(Cl)ccc34)CC2)cc1` [compound 100, reference compound], the Ki in [1] was 61.8 ± 16.3 µM; in data set [9], 19.7 µM and ~20 µM. Also, the “Selectivity index (CC50/IC50) L. donovani BMDM” value in data set [2] (CC50 BMDM / IC50 infected BMDM) is recorded as 4.2. For the same compound, the IC50 in data set [2] (Leishmania donovani, BMDM, 48 h treatment, read-out: IC50 (µM) ± SD L. donovani infected BMDM) was 12.2 ± 4.74 µM; in [3], 27.5 ± 2.23 µM; in [3] (Leishmania mexicana, RAW264.7, 48 h), 20 to 27.5 µM; in data set [4] (Leishmania mexicana, BMDM, 48 h, 48 h treatment, read-out: IC50 (µM) ± SD L. mexicana infected BMDM), 12.1 ± 1.27 µM; in data set [5], 49.25 ± 0.26 µM; in data set [5] (Leishmania mexicana, 72 h), 30 to 50 µM. The IC50 in [6] was 30.7 ± 6.62 µM; in data set [6] (Leishmania donovani, 72 h), 30 to 50 µM; in [8], 21.9 µM; in [13] it was 0.58 µM; in data set [14], 19.5 ± 4.53 µM; in data set [14] (Leishmania donovani, RAW264.7, 48 h) it was 20 to 27.5 µM. In addition, in data set [3] (setting [15]), the “Selectivity index (CC50/IC50) L. mexicana RAW264.7 macrophages” value was found to be 2.3. Moreover, in data set [4] (CC50 BMDM / IC50 infected BMDM), the “Selectivity index (CC50/IC50) L. mexicana BMDM” value was found to be 4.3. The CC50 at 48 h in data set [7] turned out to be 51.4 ± 3.45 µM; in data set [10], 62.1 ± 7.39 µM. Besides, in [11], the “enzyme inhibition on a leishmanial GDP-MP” value is “above 50%”. In [12], the “inhibition of inorganic pyrophosphatase” value is < 5%. In addition, the “Selectivity index (CC50/IC50) L. donovani RAW264.7 macrophages” value in data set [14] (setting [15]) was 3.2.

One may read the Ki as a measure of affinity in units of concentration, obtained from inhibition or displacement. A high value points to weaker binding. The term IC50 denotes the concentration that inhibits the measured activity by half. The term CC50 denotes the concentration at which the toxic effect on the cells reaches its halfway point.
